Earlier results on two molecules are cited in patent US20260092079A1, “MANUFACTURE METHOD FOR AQUEOUS FORMULATION OF MANGANESE-CONTAINING COORDINATION COMPLEX, FORMULATION, AND METHOD OF TREATMENT” (GALERA LABS, LLC, priority 2019, published 2026).

The structures appear in SMILES notation.

In data set [1] the test system is experimental model of colitis. As to conditions: rats.
Data set [2] deals with collagen-induced arthritis. The note with it: rat.
Data set [3] has as its system lethal total body irradiation. The note with it: adult mice.
Data set [4] has as its system inflammation. As to conditions: rat model.
The test system of data set [5] is radiation-induced oral mucositis. As to conditions: hamster, acute radiation-induced oral mucositis.
Data set [6] has as its system VEGFr inhibitor-induced pulmonary disease. The note with it: rat model.
In data set [7] the test system is oral mucositis. As to conditions: head-and-neck cancer patients undergoing chemoradiation therapy.

On to `[Cl-].[Cl-].[Mn+2].c1cc2nc(c1)CN[C@@H]1CCCC[C@H]1NCCN[C@@H]1CCCC[C@H]1NC2` [GC4403], for which the “Injury to the colon” value in data set [1] was “very significantly reduce the injury to the colon”. Moreover, in data set [2], the Joint disease entry is given as “prevent joint disease”. Also, the Radiation damage entry in data set [3] and in data set [5] was “attenuate the radiation damage” throughout. Moreover, the Inflammation result in data set [4] is on record as “inhibit inflammation”.

With `[Cl][Mn][Cl].c1cc2nc(c1)CN[C@H]1CCCC[C@@H]1NCCN[C@H]1CCCC[C@@H]1NC2` [GC4419], in data set [6], the “VEGFr inhibitor-induced pulmonary disease” value is listed as “attenuate VEGFr inhibitor-induced pulmonary disease”. In data set [7], the Oral mucositis result is “reduce oral mucositis”.
